From PubChem BioAssay AID2060887 (Molecular Pharmacology Branch, DTP, NCI, 2025)

System: 782815-120-R-J1-PDC complex spheroid viability
Experiment: Anticancer human tumor 782815-120-R-J1-PDC patient-derived colon adenocarcinoma cell line growth inhibition [RAS]
Conditions: for IC50: curve of first compound; for viability, T/C: stronger effect = lower value
In short: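 Agents were tested in combination matrices in half-log decrements from a top concentration at or near clinical Cmax (10 microM if undetermined). Targets were multi-cell spheroids of tumour lines plus HUVEC and MSC stromal cells.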
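Further: spheroids exposed to compounds for 7 days before reading.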
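Wherever viability, T/C is given: 100% = DMSO vehicle control viability.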

CCC(CC)c1cc(NC2CCC(N)C2)n2nccc2n1 (centres undefined) + CCn1c(-c2cccnc2C(C)OC)c2c3cc(ccc31)N1CCOC(CC(NC(=O)C(C(C)C)N(C)C(=O)C3(F)CCN(C(=O)C#CC(C)(C)N(C)C)CC3)C(=O)N3CCCC(N3)C(=O)OCC(C)(C)C2)C1
IC50 (second compound 0.000949 µM): 2.93 µM
IC50 (second compound 0.003 µM): 3.08 µM
IC50 (second compound 0.00949 µM): 2.86 µM
IC50 (second compound 0.03 µM): 2.74 µM
IC50 (second compound 0.0949 µM): 2.85 µM
IC50 (second compound 0.3 µM): 2.36 µM
viability, T/C (second compound 0.000949 µM, first compound 0.0316 µM): 98.6%
viability, T/C (second compound 0.000949 µM, first compound 0.1 µM): 90.5%
viability, T/C (second compound 0.000949 µM, first compound 0.316 µM): 103%
viability, T/C (second compound 0.000949 µM, first compound 1 µM): 100%
viability, T/C (second compound 0.000949 µM, first compound 3.16 µM): 46.6%
viability, T/C (second compound 0.000949 µM, first compound 10 µM): 2.15%
viability, T/C (second compound 0.003 µM, first compound 0.0316 µM): 97.9%
viability, T/C (second compound 0.003 µM, first compound 0.1 µM): 92.7%
viability, T/C (second compound 0.003 µM, first compound 0.316 µM): 97.4%
viability, T/C (second compound 0.003 µM, first compound 1 µM): 96.8%
viability, T/C (second compound 0.003 µM, first compound 3.16 µM): 48.9%
viability, T/C (second compound 0.003 µM, first compound 10 µM): 1.8%
viability, T/C (second compound 0.00949 µM, first compound 0.0316 µM): 101%
viability, T/C (second compound 0.00949 µM, first compound 0.1 µM): 102%
viability, T/C (second compound 0.00949 µM, first compound 0.316 µM): 95.9%
viability, T/C (second compound 0.00949 µM, first compound 1 µM): 102%
viability, T/C (second compound 0.00949 µM, first compound 3.16 µM): 45.1%
viability, T/C (second compound 0.00949 µM, first compound 10 µM): 2.14%
viability, T/C (second compound 0.03 µM, first compound 0.0316 µM): 94.2%
viability, T/C (second compound 0.03 µM, first compound 0.1 µM): 96.5%
viability, T/C (second compound 0.03 µM, first compound 0.316 µM): 103%
viability, T/C (second compound 0.03 µM, first compound 1 µM): 108%
viability, T/C (second compound 0.03 µM, first compound 3.16 µM): 42.8%
viability, T/C (second compound 0.03 µM, first compound 10 µM): 2.25%
viability, T/C (second compound 0.0949 µM, first compound 0.0316 µM): 97.6%
viability, T/C (second compound 0.0949 µM, first compound 0.1 µM): 99%
viability, T/C (second compound 0.0949 µM, first compound 0.316 µM): 97.4%
viability, T/C (second compound 0.0949 µM, first compound 1 µM): 106%
viability, T/C (second compound 0.0949 µM, first compound 3.16 µM): 45%
viability, T/C (second compound 0.0949 µM, first compound 10 µM): 2.54%
viability, T/C (second compound 0.3 µM, first compound 0.0316 µM): 91.9%
viability, T/C (second compound 0.3 µM, first compound 0.1 µM): 92.6%
viability, T/C (second compound 0.3 µM, first compound 0.316 µM): 94.3%
viability, T/C (second compound 0.3 µM, first compound 1 µM): 101%
viability, T/C (second compound 0.3 µM, first compound 3.16 µM): 34.9%
viability, T/C (second compound 0.3 µM, first compound 10 µM): 3.21%

CCc1c2c(nc3ccc(O)cc13)-c1cc3c(c(=O)n1C2)COC(=O)[C@]3(O)CC + C#Cc1c(F)ccc2cc(O)cc(-c3ncc4c(N5CC6CCC(C5)N6)nc(OCC56CCCN5CC(F)C6)nc4c3F)c12
IC50 (second compound 0.0316 µM): 0.00466 µM
IC50 (second compound 0.1 µM): 0.00439 µM
IC50 (second compound 0.316 µM): 0.00486 µM
IC50 (second compound 1 µM): 0.00476 µM
IC50 (second compound 3.16 µM): 0.0042 µM
IC50 (second compound 10 µM): 0.00439 µM
viability, T/C (second compound 0.0316 µM, first compound 0.000949 µM): 94.9%
viability, T/C (second compound 0.0316 µM, first compound 0.003 µM): 67.9%
viability, T/C (second compound 0.0316 µM, first compound 0.00949 µM): 20.8%
viability, T/C (second compound 0.0316 µM, first compound 0.03 µM): 9.58%
viability, T/C (second compound 0.0316 µM, first compound 0.0949 µM): 4.66%
viability, T/C (second compound 0.0316 µM, first compound 0.3 µM): 1.46%
viability, T/C (second compound 0.1 µM, first compound 0.000949 µM): 98.9%
viability, T/C (second compound 0.1 µM, first compound 0.003 µM): 64%
viability, T/C (second compound 0.1 µM, first compound 0.00949 µM): 21.4%
viability, T/C (second compound 0.1 µM, first compound 0.03 µM): 10.5%
viability, T/C (second compound 0.1 µM, first compound 0.0949 µM): 4.8%
viability, T/C (second compound 0.1 µM, first compound 0.3 µM): 1.59%
viability, T/C (second compound 0.316 µM, first compound 0.000949 µM): 96.9%
viability, T/C (second compound 0.316 µM, first compound 0.003 µM): 69.3%
viability, T/C (second compound 0.316 µM, first compound 0.00949 µM): 22.6%
viability, T/C (second compound 0.316 µM, first compound 0.03 µM): 10.5%
viability, T/C (second compound 0.316 µM, first compound 0.0949 µM): 3.58%
viability, T/C (second compound 0.316 µM, first compound 0.3 µM): 1.52%
viability, T/C (second compound 1 µM, first compound 0.000949 µM): 99.9%
viability, T/C (second compound 1 µM, first compound 0.003 µM): 67.4%
viability, T/C (second compound 1 µM, first compound 0.00949 µM): 23.6%
viability, T/C (second compound 1 µM, first compound 0.03 µM): 9.52%
viability, T/C (second compound 1 µM, first compound 0.0949 µM): 3.42%
viability, T/C (second compound 1 µM, first compound 0.3 µM): 1.25%
viability, T/C (second compound 3.16 µM, first compound 0.000949 µM): 99.3%
viability, T/C (second compound 3.16 µM, first compound 0.003 µM): 61.9%
viability, T/C (second compound 3.16 µM, first compound 0.00949 µM): 21%
viability, T/C (second compound 3.16 µM, first compound 0.03 µM): 8.73%
viability, T/C (second compound 3.16 µM, first compound 0.0949 µM): 3.05%
viability, T/C (second compound 3.16 µM, first compound 0.3 µM): 1.2%
viability, T/C (second compound 10 µM, first compound 0.000949 µM): 102%
viability, T/C (second compound 10 µM, first compound 0.003 µM): 64%
viability, T/C (second compound 10 µM, first compound 0.00949 µM): 21%
viability, T/C (second compound 10 µM, first compound 0.03 µM): 11.2%
viability, T/C (second compound 10 µM, first compound 0.0949 µM): 2.93%
viability, T/C (second compound 10 µM, first compound 0.3 µM): 0.95%
